7 molecules from US20170073690A1, “ANTAGONISTS OF SLC38A9 AND THEIR USE IN THERAPY” (CEMM - Forschungzentrum Fuer Molekulare Medizin GMBH, priority 2014, published 2017) can be followed below.

Data set [1] concerns the target T1, recombinant human SLC38A9 (Homo sapiens, UniProt Q8NBW4).
T1 construct: made in house; host or cells: E. coli Lemo21(DE3)pLysS
T1 sequence (Q8NBW4 1-561): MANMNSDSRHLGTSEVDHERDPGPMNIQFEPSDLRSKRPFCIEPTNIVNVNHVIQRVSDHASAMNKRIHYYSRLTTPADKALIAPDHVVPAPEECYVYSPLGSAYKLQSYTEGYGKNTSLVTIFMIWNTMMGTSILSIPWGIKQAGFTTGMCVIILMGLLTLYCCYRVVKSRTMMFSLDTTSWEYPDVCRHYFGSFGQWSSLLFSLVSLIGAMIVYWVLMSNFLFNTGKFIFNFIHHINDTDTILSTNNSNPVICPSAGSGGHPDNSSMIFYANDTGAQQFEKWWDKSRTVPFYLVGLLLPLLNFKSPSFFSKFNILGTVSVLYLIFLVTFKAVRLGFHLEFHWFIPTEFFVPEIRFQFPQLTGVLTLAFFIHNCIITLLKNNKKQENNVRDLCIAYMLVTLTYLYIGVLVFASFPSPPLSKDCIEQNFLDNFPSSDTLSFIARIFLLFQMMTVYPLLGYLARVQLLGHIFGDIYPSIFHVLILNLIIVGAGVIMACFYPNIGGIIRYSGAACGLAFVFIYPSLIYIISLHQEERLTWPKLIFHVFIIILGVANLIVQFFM
As to the kind of experiment: inhibition of [3H]-glutamine uptake in SLC38A9 proteoliposomes. It is filed as biochemical. As to conditions: for competition for glutamine transport (inhibition of [3H]-glutamine uptake): added together with 10 μM [3H]-glutamine, transport at 60 min, MeAIB 1 mM, FIG. 3D, FIG. 10B; for transport capacity of SLC38A9 for amino acids (transport preference): inferred from binding preference, FIG. 3d; for binding capacity of SLC38A9 for amino acids (binding preference): ranking read from FIG. 3d. On the procedure: (§1) a, Orientation of SLC38A9 in proteoliposomes. After purification on Ni-chelating chromatography His-SLC38A9 was incubated overnight at 37° C. in absence or in presence of 1 U thrombin. Immunoblot using anti-His or anti-SLC38A9 antibody. b, Proteoliposomes reconstituted with SLC38A9 were centrifuged, resuspended in isosmotic buffer, incubated overnight at 37° C. with 1 U thrombin, solubilized with SDS Immunoblot using anti-His or anti-SLC38A9 antibody. c, Time course of glutamine uptake by SLC38A9 in proteoliposomes reconstituted with purified SLC38A9 or with control empty vector protein. The uptake of 10 μM [^3H]-glutamine was measured at different time intervals. Transport was stopped as described in Materials and Methods. Values represent means of specific transport ±s.d. from 8 different experiments. Significance was estimated by Student's t test (*P<0.01 or **P<0.001). d, Inhibition of the [^3H]-glutamine uptake in proteoliposomes. The indicated amino acids were added together with 10 μM [^3H]-glutamine Transport was measured at 60 min Values represent means of percent residual activity with respect to control (without added inhibitor) ±s.d. from 3 independent experiments. Significance was estimated by Student's t test (*P<0.01 or **P<0.001). e, Time course of glutamine efflux from proteoliposomes reconstituted with purified SLC38A9. Proteoliposomes were incubated with external 10 μM [^3H]-glutamine After 120 min the residual external radioactivity was removed by gel-filtration and the time course of [^3H]-glutamine efflux was measured as for the uptake (see FIG. 3 c). Values represent means of specific transport ±s.d. from 3 different experiments. f and g. HEK293T cells were transfected with the indicated tagged RAGA (0 or RAGB (g) and RAGC constructs or empty vector (−). Anti-HA immunoprecipitates and cell extracts were treated with PNGase and analysed by immunoblot with the indicated antibodies. Mutations are the following: RAGA: Q66L and T21N; RAGB: Q99L and T54N; RAGC: S75N and Q120N
a, Purification of SLC38A9. Lanes represent empty vector control and SLC38A9 expressed in E. coli and purified on Ni-chelating chromatography Immunoblot of the same fractions using anti-His antibody or anti-SLC38A9 are shown. b, Inhibition of the [^3H]-glutamine uptake in proteoliposomes. 1 mM MeAIB (α-(methylamino)isobutyric acid) was added together with 10 μM [^3H]-glutamine Transport was measured at 60 min. Values represent means of percent residual activity with respect to control (without added inhibitor) ±s.d. from 3 independent experiments. Significance was estimated by Student's t test (*P<0.01 or **P<0.001). c, Uptake of the indicated [3H]-labelled amino acids (10 μM) by SLC38A9 in proteoliposomes measured at 60 min. Values represent means of percent in respect to glutamine transport measured in the same experiment ±s.d. from three independent experiments. Significance was estimated by Student's t test (*P<0.01 or **P<0.001). d, Time course of glutamine uptake by SLC38A9 in proteoliposomes reconstituted with the purified protein fraction. The uptake of 10 μM [^3H]-glutamine was measured at different time intervals, in the presence of the indicated intraliposomal sodium concentrations. Transport was stopped as described in Materials and Methods and calculated by subtracting the radioactivity associated to proteoliposomes reconstituted with the empty vector fraction. Values represent means of specific transport ±s.d. from 3 different experiments. e, Effect of pH on the reconstituted SLC38A9. Reconstitution was performed as described in Materials and Methods except that 20 mM Hepes/Tris at the indicated pH was used. Transport was started by adding 10 μM [^3H]-glutamine in 20 mM Hepes/Tris buffer at the indicated pH to proteoliposomes and stopped at 30 min. Results are means of specific transport rate ±s.d. from 3 different experiments f-g HEK293T cells were starved in medium without amino acids and serum for the indicated times. […]

Data set [2] deals with T1, recombinant human SLC38A9. The experiment in a line: uptake and efflux of [3H]-labelled amino acids by SLC38A9 in proteoliposomes. It is filed as biochemical. To be noted: for direct transport of [3H]-labelled amino acid by SLC38A9: 10 μM labelled amino acid, 60 min, relative to glutamine transport, FIG. 10C. On the procedure:
as §1, with “Values represent means of specific transport ±s.d. from 3 different experiments. f and g.” left out
a, Purification of SLC38A9. […] 1 mM MeAIB (α-(methylamino)isobutyric acid) was added together with 10 μM [^3H]-glutamine Transport was measured at 60 min. […] Significance was estimated by Student's t test (*P<0.01 or **P<0.001). c, Uptake of the indicated [3H]-labelled amino acids (10 μM) by SLC38A9 in proteoliposomes measured at 60 min. Values represent means of percent in respect to glutamine transport measured in the same experiment ±s.d. from three independent experiments. […] The uptake of 10 μM [^3H]-glutamine was measured at different time intervals, in the presence of the indicated intraliposomal sodium concentrations. Transport was stopped as described in Materials and Methods and calculated by subtracting the radioactivity associated to proteoliposomes reconstituted with the empty vector fraction. […]

Data set [3] has as its system HEK293T cells. The experiment in a line: cell size measurement (nucleus diameter, automated microscopy). The class given is cell-based, human. To be noted: shRNA knockdown vs shGFP, nucleus diameter as proxy, FIG. 5C. On the procedure: (§2) a, Table of SLCs belonging to amino acid transporter families robustly expressed in HEK293 and K562 cells as monitored by RNAseq. SLC members of amino acid transporter-containing families^16 and expressed (FPKM>0.5) in both cell lines were ranked according to their expression level. […] Sparse and interphase cells were selected using image analysis and machine learning, and nucleus diameter (μm) was used as robust proxy for cell size^33. […] 10^5 cells were seeded and counted every 24 h. Mean values ±s.d. from triplicates e. HEK293 Flp-In TREx cells inducibly expressing SLC38A9 were treated or not with doxycycline (Dox) for 24 h. Where indicated, cell lysates were treated with PNGase (1 hour, 37° C.) and analysed by immunoblot (IB)
Images were taken by automated microscopy using the PerkinElmer Operetta with 20× magnification in confocal mode. Images were analysed using CellProfiler (www at cellprofiler.org), CellClassifier (http at www.pelkmanslab.org/?page_id=63), Population Context measurement code (https at www.pelkmanslab.org/?page_id=1150) and custom Matlab code written specifically for this study. […] We used the typical nucleus diameter (i.e. the diameter of a circle with the same area as that measured for each nucleus) as a robust proxy for cell size^6. […]

The test system of data set [4] is mTORC1. As to the kind of experiment: amino acid-induced mTORC1 activation in HEK293T (immunoblot of phosphorylated S6 kinase, S6, ULK1). The class given is cell-based, human. To be noted: lentivirus-encoded shRNA vs shGFP, starved 50 min, amino acids 10 or 20 min, FIG. 4A. The protocol: After 72 h, cells were treated as in a.d, HeLa were transfected with the indicated siRNA. After 72 h, cells were starved for 50 min in medium without amino acids and serum and then stimulated with amino acids and insulin (1 uM). Cell lysates were analysed by immunoblot with antibodies against phosphorylated threonine 389 S6 kinase, phosphorylated S6 and total S6 kinase e, Model of Sentor/SLC38A9 as part of the lysosomal amino acid-sensing machinery
[…]. HEK293T cells were co-transfected with packaging plasmids and the shRNA-encoding plasmids. Cells were washed 16 h after transfection. Virus-containing supernatants were collected 24 h after washing, filtered and used for infection. After infection, HEK293T cells were selected with puromycin (4 μg/ml). For siRNA-mediated knockdown, HEK293T cells were transfected with HiPerfect (Qiagen) with 60 nM of siRNA pool. After 72 h cells were subjected to amino acid stimulation as described. ON-TARGETplus SMARTpool against SLC38A9 (L-007337-02-0005, Target sequences: […] (SEQ ID NO: 77), […] (SEQ ID NO: 78), […] (SEQ ID NO: 79), […] (SEQ ID NO: 80)), LAMTOR1 (L-020916-02-0010, Target sequences: […] (SEQ ID NO: 81), […] (SEQ ID NO: 82), […] (SEQ ID NO: 83), […] (SEQ ID NO: 84)) and Non-targeting pool (D-001810-10-05) were from ThermoScientific. […]

Data set [5] relates to mTORC1. The experiment in a line: cycloheximide-induced mTORC1 activation in HEK293T (immunoblot). It is filed as cell-based, human. To be noted: shRNA, starved 50 min, cycloheximide 25 μg/ml 10 or 20 min, FIG. 4B. The protocol: After 72 h, cells were treated as in a.d, HeLa were transfected with the indicated siRNA. […] Cell lysates were analysed by immunoblot with antibodies against phosphorylated threonine 389 S6 kinase, phosphorylated S6 and total S6 kinase e, Model of Sentor/SLC38A9 as part of the lysosomal amino acid-sensing machinery
[…]. HEK293T cells were co-transfected with packaging plasmids and the shRNA-encoding plasmids. Cells were washed 16 h after transfection. Virus-containing supernatants were collected 24 h after washing, filtered and used for infection. After infection, HEK293T cells were selected with puromycin (4 μg/ml). For siRNA-mediated knockdown, HEK293T cells were transfected with HiPerfect (Qiagen) with 60 nM of siRNA pool. After 72 h cells were subjected to amino acid stimulation as described. ON-TARGETplus SMARTpool against SLC38A9 (L-007337-02-0005, Target sequences: […] (SEQ ID NO: 77), […] (SEQ ID NO: 78), […] (SEQ ID NO: 79), […] (SEQ ID NO: 80)), LAMTOR1 (L-020916-02-0010, Target sequences: […] (SEQ ID NO: 81), […] (SEQ ID NO: 82), […] (SEQ ID NO: 83), […] (SEQ ID NO: 84)) and Non-targeting pool (D-001810-10-05) were from ThermoScientific.
HEK293T cells were washed with PBS and incubated in amino acid-free RPMI for 50 min Cell were then stimulated for 10 or 20 min by the addition of RPMI containing a two time concentrated solution of amino acids. […]
Background: A western blot detects proteins with antibodies after separation by electrophoresis.

Data set [6] relates to HEK293T cells. As to the kind of experiment: cell proliferation measurement (cell counting every 24 h). To be noted: shRNA knockdown vs shGFP, FIG. 5D. The class given is cell-based, human. On the procedure: as §2

Regarding `CNC(C)(C)C(=O)O` [MeAIB, α-(methylamino)isobutyric acid], the “competition for glutamine transport (inhibition of [3H]-glutamine uptake)” value in data set [1] is “had not effect”.
On to `NC(=O)C[C@H](N)C(=O)O` [[3H]asparagine, asparagine], for which, in data set [2], the “direct transport of [3H]-labelled amino acid by SLC38A9” value was “competence”.
For `C[C@H](N)C(=O)O` [alanine], in data set [1], the “transport capacity of SLC38A9 for amino acids (transport preference)” value (shortened to “transport capacity of SLC38A9”) was “lowest transport capacity” and the “binding capacity of SLC38A9 for amino acids (binding preference)” value (“binding capacity of SLC38A9” for short) was “lowest binding capacity”.
Take `N=C(N)NCCC[C@H](N)C(=O)O` [arginine]: in data set [1], the “competition for glutamine transport (inhibition of [3H]-glutamine uptake)” value is given as “low ability”. Also, the “direct transport of [3H]-labelled amino acid by SLC38A9” value in data set [2] is “competence”.
Regarding `N[C@@H](CS)C(=O)O` [cysteine], in data set [1], the “transport capacity of SLC38A9” value is recorded as “highest transport capacity” and the “binding capacity of SLC38A9” value is listed as “highest binding capacity”.
Consider `NC(=O)CC[C@H](N)C(=O)O` [glutamine], for which, in data set [1], the “transport capacity of SLC38A9” value was “highest transport capacity” and the “binding capacity of SLC38A9” value is given as “highest binding capacity”. Besides, the “initial rate of glutamine transport (uptake)” value in data set [2] (10 μM glutamine, time course, proteoliposomes, 25° C., pH 6.5) is recorded as 0.42±0.10 nmol per mg of protein per minute. Also, in data set [2] (loaded with external 10 μM [3H]-glutamine for 120 min, FIG. 3E), the “rate of [3H]-glutamine efflux from proteoliposomes” value came to 1.7 ± 0.30 nmol/min/mg.
Turning to “CCGGGCCUUGACAACAGUUCUAUAUCUCGAGAUAUAGAACUGUUGUCAAGGCUUUUUUG (chemistry not given here; listed as Homo sapiens) [shRNA, shRNA-encoding pLKO.1 targeting SLC38A9 (ThermoFisher), lentivirally delivered; targets nt 1931-1951 of human SLC38A9 mRNA]”, the cell size entry in the data set on HEK293T cells [3] is “clear reduction”. Besides, in the data set with mTORC1 [4], the “amino acid-induced mTORC1 activation” value is “strong reduction”. In addition, the “cycloheximide-induced mTORC1 activation” value in the data set with mTORC1 [5] is given as “impaired”. The “ability of the targeted cells to proliferate” value in the data set on HEK293T cells [6] is “impairment”.
